Results from patent publication US20210186989A1, “ENHANCED TRAINED IMMUNITY IN MYELOID CELLS BY SHIP-1 INHIBITION” (CENTRO NACIONAL DE INVESTIGACIONES CARDIOVASCULARES CARLOS …, priority 2018, published 2021).

Columns and labels:
[1] = system: mouse bone marrow-derived macrophages (BMDMs); test: Trained immunity in vitro model, TNFα by ELISA after LPS; format: cell-based; conditions: for TNF-alpha overproduction in trained LysMΔSHIP-1 BMDMs: 30 min pre-incubation before beta-glucan training; for boost of trained immunity (TNF alpha) in absence of SHIP-1: LysMΔSHIP-1 BMDMs, beta-glucan-trained, 30 min pre-incubation
Procedure: BMDMs (10^5) were plated in 96-well plates (200-μl final volume, Corning) and stimulated with R10 or 100 μg/ml β-glucan (whole glucan particles, WGP, Biothera, Eagan, Minn.) for 24h. Then, cells were washed and rested 3 days in culture medium. At day 4, BMDMs were washed again and primed with 25 ng/ml IFNγ (BD Biosciences, San Jose, Calif.) for 24h. On day 5, a final wash was performed and cells were stimulated with R10 or 1 μg/ml Escherichia coli LPS (EK, Invivogen, San Diego, Calif.). After 24h, supernatants were collected for TNFα measurement by ELISA (Opteia ELISA kit, BD Biosciences).
When required, BMDMs were pre-incubated for 30 minutes prior to β-glucan training with 1.5 μM Syk inhibitor (R406, Hozel diagnostic, Cologne, Germany), […] Raf-1 inhibitor (GW5074, Sigma), 500 μM MTA (5′-Deoxy-5′-(methylthio)adenosine, Sigma), 6 μM Pargyline (Sigma) or SHIP-1 inhibitor (SHIPi, 3-α-aminocholestane, 3AC, Calbiochem, Darmstad, Germany) at the indicated doses. Inhibitors were also added in the first wash-out, before the resting period.
(§1) For TNFα normalization, the fold of cells in each condition was calculated as follows: (Live cell number in condition X)/(live cell number in non-trained WT condition). In case of SHIP-1 inhibition experiments, non-treated cells were used as reference. Thus, TNFα per cell number was normalized as (absolute TNFα value)/(fold of cells).

[2] = system: mouse BMDMs; test: BMDM viability in the training scheme (FACS, Hoechst 33258 exclusion); format: cell-based
Procedure: To assess receptor expression and cell viability, 6·10^5 BMDMs were plated in non-treated 24-well plates (1200-μl final volume, Corning) and followed the training scheme described above. Dectin-1 expression was evaluated at day 0 prior to β-glucan addition. Cell viability and TLR4 expression were assessed on day 5 before LPS stimulation. At indicated times, cells were collected in PBS/EDTA and stained on ice-cold FACS Buffer (PBS/EDTA plus 3% FBS) for flow cytometry analysis.
Samples were stained with the appropriate antibody cocktails in ice-cold FACS Buffer at 4° C. for 15 minutes. Antibodies included mouse PE-anti-TLR4 (BioLegend, San Diego, Calif.) and APC-anti-Dectin-1 (Bio-Rad). Dead cells were excluded by Hoechst 33258 (Invitrogen, Carlsbad, Calif.) incorporation. Purified anti-FcγRIII/II (2.4G2, TONBO Bioscience, San Diego, Calif.) was used to block murine Fc-receptors at 4° C. for 10 minutes in all the stainings. Events were acquired using FACSCanto 3L (BD Biosciences). Data were analyzed with FlowJo software (Tree Star, Ashland, Oreg.).

[3] = system: human peripheral blood mononuclear cells (PBMCs); test: Trained immunity in vitro model in human PBMCs, TNFα by ELISA after LPS; format: cell-based; conditions: beta-glucan-trained human PBMCs, 10 μM 3AC, LPS stimulation
Procedure: Total PBMCs (5·10^5) were plated in 96-well plates (200-μl final volume) and stimulated with 100 μg/ml β-glucan for 24h. Then, cells were washed and rested 6 days in culture medium. At day 7, PBMCs were stimulated with 1 μg/ml LPS (EK). After 24h, supernatants were collected for TNFα measurement by ELISA (Human TNFα DuoSet, R&D Systems, Abingdon, UK). When required, PBMCs were pre-incubated for 30 minutes prior to β-glucan training with 10 μM 3AC. Inhibitor was also added together with the first wash-out, before the resting period.
as §1

[4] = system: human PBMCs; test: Viability of cells in human PBMC training scheme; format: cell-based; conditions: non-trained cells in human PBMC experiment (not shown)
Procedure: To assess cell viability, 3·10^6 total PBMCs were plated in 24-well plates (1200-μl final volume, Corning) and followed the training scheme described here. At day 7, prior to LPS stimulation, cells were collected in PBS/EDTA and stained on ice-cold FACS Buffer for flow cytometry analysis.

[5] = system: Candida albicans SC5314; test: In vivo training followed by lethal systemic Candida albicans infection, survival; parameters: species or system mouse; conditions: 0.11 mg 3AC i.p. days -8 and -7, lethal 2·10^6 C. albicans i.v.
Procedure: Mice were trained with either two intraperitoneal (i.p.) injections of 1 mg β-glucan particles on days −7 and −4 or 2·10^4 Candida albicans intravenously (i.v) on day −7. Sterile PBS was used as control. One week later, mice were challenged with 5 μg E. coli LPS (serotype 055:B5, Sigma) i.p. and blood was collected 60 min later to assess the serum TNFα (Mouse TNFα DuoSet, R&D Systems). Alternatively, mice were lethally infected with 2·10^6 C. albicans i.v. and monitored daily for weight, general health and survival, following the institutional guidance. When required mice were i.p. treated with 0.11 mg 3AC on days −8 and −7.3AC was diluted in PBS 0.3% hydroxypropylcellulose (Sigma), used as control.

[6] = biological target: T1, SHIP-1 (Homo sapiens, UniProt Q92835); conditions: SHIP-1 inhibitor 3AC; value given in parentheses, no test described; cited from earlier work
T1 sequence (Q92835 1-1189): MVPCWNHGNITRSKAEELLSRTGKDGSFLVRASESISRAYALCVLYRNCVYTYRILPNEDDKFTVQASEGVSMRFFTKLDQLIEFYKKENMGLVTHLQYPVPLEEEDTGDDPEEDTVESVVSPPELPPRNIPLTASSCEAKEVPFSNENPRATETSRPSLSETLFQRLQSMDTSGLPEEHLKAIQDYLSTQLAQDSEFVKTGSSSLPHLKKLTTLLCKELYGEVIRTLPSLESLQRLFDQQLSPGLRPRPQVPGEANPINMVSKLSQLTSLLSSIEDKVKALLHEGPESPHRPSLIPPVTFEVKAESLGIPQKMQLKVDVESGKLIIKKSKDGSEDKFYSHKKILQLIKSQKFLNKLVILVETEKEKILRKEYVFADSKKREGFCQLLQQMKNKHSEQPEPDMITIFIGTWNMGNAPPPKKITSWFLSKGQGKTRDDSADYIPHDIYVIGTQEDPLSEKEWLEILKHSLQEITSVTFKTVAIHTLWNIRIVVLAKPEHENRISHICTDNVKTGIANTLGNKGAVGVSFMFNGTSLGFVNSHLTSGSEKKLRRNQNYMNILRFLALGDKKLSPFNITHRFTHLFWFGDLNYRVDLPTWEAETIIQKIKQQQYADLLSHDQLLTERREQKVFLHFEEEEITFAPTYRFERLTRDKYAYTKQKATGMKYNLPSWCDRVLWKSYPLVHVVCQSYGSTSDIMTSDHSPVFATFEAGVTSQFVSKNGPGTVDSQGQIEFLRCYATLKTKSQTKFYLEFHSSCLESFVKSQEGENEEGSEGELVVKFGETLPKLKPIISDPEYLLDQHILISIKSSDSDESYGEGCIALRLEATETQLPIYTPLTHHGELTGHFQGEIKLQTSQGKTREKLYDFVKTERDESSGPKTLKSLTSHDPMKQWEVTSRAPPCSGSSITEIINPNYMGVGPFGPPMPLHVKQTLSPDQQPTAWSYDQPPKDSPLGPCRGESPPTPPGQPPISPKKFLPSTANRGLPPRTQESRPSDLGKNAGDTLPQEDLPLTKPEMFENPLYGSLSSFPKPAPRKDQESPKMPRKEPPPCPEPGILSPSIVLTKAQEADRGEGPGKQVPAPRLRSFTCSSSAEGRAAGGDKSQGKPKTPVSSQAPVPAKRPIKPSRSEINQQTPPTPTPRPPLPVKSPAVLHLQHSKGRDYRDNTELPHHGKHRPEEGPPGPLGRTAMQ

CSC[C@H]1O[C@@H](n2cnc3c(N)ncnc32)[C@H](O)[C@@H]1O [MTA, 5′-Deoxy-5′-(methylthio)adenosine]
TNF-alpha overproduction in trained LysMΔSHIP-1 BMDMs ([1]; 500 μM): inhibited the increase in TNF-alpha

O=C1Nc2ccc(I)cc2/C1=C/c1cc(Br)c(O)c(Br)c1 [GW5074]
boost of trained immunity (TNF alpha) in absence of SHIP-1 [1]: did not affect this process

CC(C)CCC[C@@H](C)[C@H]1CC[C@H]2[C@@H]3CC[C@H]4C[C@H](N)CC[C@]4(C)[C@H]3CC[C@]12C [3AC, 3α-aminocholestane]
TNF-alpha production in supernatants ([1]; beta-glucan-trained BMDMs, different doses of 3AC 30 min before training and after wash-out, LPS challenge): boosted TNF-alpha production in a dose-dependent manner
survival of non-trained BMDMs ([2]; 5 day-long in vitro culture in the presence of 3AC): did not survive
survival of trained BMDMs ([2]; beta-glucan-trained, in the presence of 3AC): did not affect survival
TNF-alpha production in supernatants [3]: boosted TNF-alpha production
toxicity for non-trained cells [4]: toxic
survival of non-trained mice [5]: did not impact on the survival
survival of Candida-trained mice ([5]; training 2·10^4 C. albicans i.v. day -7): improved the survival
IC50 [6]: 13.5 µM

COc1cc(Nc2ncc(F)c(Nc3ccc4c(n3)NC(=O)C(C)(C)O4)n2)cc(OC)c1OC [R406]
boost of trained immunity (TNF alpha) in absence of SHIP-1 ([1]; 1.5 μM): abolished the boost of trained immunity

C#CCN(C)Cc1ccccc1 [pargyline, Pargyline]
TNF-alpha overproduction in trained LysMΔSHIP-1 BMDMs ([1]; 6 μM): had no effect
